Assay results published in patent publication US20100111908A1, “Induction of Renal Cells for Treatment of Kidney Disease” (priority 2008, published 2010).

Key:
CaR = target: T1, CaR (Homo sapiens, UniProt P41180); conditions: activation of CaR; Olszak et al., 2000; cited from earlier work
T1 construct: host or cells: monocytes
T1 sequence (P41180 20-1078): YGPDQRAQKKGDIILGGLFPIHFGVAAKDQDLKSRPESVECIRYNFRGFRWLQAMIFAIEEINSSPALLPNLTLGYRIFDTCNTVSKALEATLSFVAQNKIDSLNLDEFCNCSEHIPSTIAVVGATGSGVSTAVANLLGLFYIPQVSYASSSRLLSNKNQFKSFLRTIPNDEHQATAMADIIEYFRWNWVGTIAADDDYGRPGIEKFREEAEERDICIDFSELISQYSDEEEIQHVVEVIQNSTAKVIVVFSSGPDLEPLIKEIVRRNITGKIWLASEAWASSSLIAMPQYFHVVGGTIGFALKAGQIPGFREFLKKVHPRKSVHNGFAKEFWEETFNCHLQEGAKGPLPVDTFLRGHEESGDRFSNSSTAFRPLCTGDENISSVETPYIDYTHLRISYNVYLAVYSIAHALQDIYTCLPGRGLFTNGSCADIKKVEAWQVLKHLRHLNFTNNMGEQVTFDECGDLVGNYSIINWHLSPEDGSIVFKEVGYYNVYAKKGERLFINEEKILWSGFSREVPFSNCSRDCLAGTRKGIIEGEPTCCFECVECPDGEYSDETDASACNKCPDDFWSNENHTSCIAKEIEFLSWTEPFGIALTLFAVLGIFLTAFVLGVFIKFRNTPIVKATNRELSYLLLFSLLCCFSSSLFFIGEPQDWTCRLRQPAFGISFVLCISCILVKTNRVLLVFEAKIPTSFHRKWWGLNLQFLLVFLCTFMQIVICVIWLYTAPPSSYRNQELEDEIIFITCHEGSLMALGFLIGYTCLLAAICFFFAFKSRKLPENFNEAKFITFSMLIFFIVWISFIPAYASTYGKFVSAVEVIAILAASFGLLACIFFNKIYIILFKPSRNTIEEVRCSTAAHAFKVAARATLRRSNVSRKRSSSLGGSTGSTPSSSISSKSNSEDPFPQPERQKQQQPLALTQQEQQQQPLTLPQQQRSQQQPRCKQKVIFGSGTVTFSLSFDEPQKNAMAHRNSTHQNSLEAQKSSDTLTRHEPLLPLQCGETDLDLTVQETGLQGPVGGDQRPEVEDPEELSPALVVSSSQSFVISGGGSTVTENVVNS

Lin− cells [1] = assay: Cell death in 2nd stage induction culture; format: cell-based, mouse; conditions: about 15 nM, 6 hr in the 2nd stage
Text: Use of HDAC inhibitors may take into account the fact that high dose and/or long period of HDAC inhibition may induce widespread changes in gene expression. For example, treatment of metanephric organs cultures with HDAC inhibitor induces significant disturbance in the transcription network (Chen et al., 2007).

HDAC = conditions: Vigushin et al., 2001, cited from earlier work
[2] = system: cadherin 6, cadherin 16, Lim1, Gdnf and Pax2 promoters; assay: ChIP assay of histone acetylation on renal gene promoters; format: cell-based, mouse; conditions: TSA 15 nM, 6 h at 2nd stage vs vehicle; ChIP after 3rd stage
Text: Increased histone acetylation accompanies cell conversion. To begin to understand the mechanisms of cell conversion and its associated nuclear reprogramming, the inventors examined the possibility of epigenetic regulation by histone modifications and chromatin remodeling. Chromatin modifications were detected using chromatin immunoprecipitation assays (ChIP assays) as described (Shang et al., 2000). Antibodies to acetylated histones H3 and H4 and tri-methylated histone H3 (lysine 9 or K9) were used for immunoprecipitation. […] In contrast, there was no change in tri-methylation of H3K9 on the cadherin 6 promoter (top panel). Acetylation of H3 but not H4 on the cadherin 16 promoter was increased after the 3rd stage. Tri-methylation of H3K9 on the cadherin 16 promoter seemed to increase after the 3rd stage.
(§1) The HDAC inhibitor TSA increases expression of renal developmentally regulated genes in induced cells. Although HDAC inhibitor trichostatin A (TSA) is a non-selective inhibitor of HDACs, TSA only alter 2-10% of the genes tested in multiple cell lines (Gray et al., 2004; Lee et al., 2006b; Mitsiades et al., 2004; Peart et al., 2005).

[3] = system: lymphoid cell line / multiple cell lines; conditions: cited from earlier work
Lin− cells [4] = assay: qRT-PCR of renal developmentally regulated genes in induced cells; format: cell-based, mouse; conditions: TSA 15 nM, 6 h at 2nd stage vs vehicle, cells after 3rd stage
Experimental: Lin^− cells, which include lineage undifferentiated hematopoietic stem cells and progenitor cells, were isolated to 99.8% purity by FACS as described (Lin et al., 2003). Purified Lin^− cells were cultured sequentially in the presence of cytokines including IL-3, IL-6, and stem cell factor for 48 hr (1st stage); nephrogenic factors including retinoic acid, activin-A and BMP7 for 48 hr (2nd stage); and epithelial growth factors including EGF, IGF-1 and HGF for 72 hr (3rd stage). The total induction period is 1 week. Cytokine treatment is known to stimulate HSC to enter the cell cycle and the cells remain as hematopoietic cells after 48 hr in these culture conditions (Luskey et al., 1992; Reddy et al., 1997). The nephrogenic factors that were used can induce differentiation of mouse ES cells into renal epithelial cells as reported by Kim and Dressler (2005). Therefore, the inventors reasoned that nephrogenic factors might induce cycling Lin^− cells to select a renal cell fate. Further treatment of the cells with epithelial growth factors would promote epithelial growth. After the 1st stage, the cells remained small, round, and discrete (FIG. 5B, top left). After the 3rd stage, the cells increased in size and formed floating spheres (FIG. 5B, top right). The inventors took the precaution of only transferring cells in suspension to new culture dishes. The adherent cells that might represent bone marrow stromal/stem cells (MSC) were discarded. In some experiments, the inventors continued the cultures for an additional 7 days after the induction period (total 14 days) and observed an epithelial-like morphology in the cells (FIG. 5B, bottom). In the Examples section, the inventors will use the term “induced cells” to refer to cells after the 3rd stage culture (1 week induction).
as §1

[5] = system: Lin− cells isolated from cre^ksp; R26R-EYFP mice; assay: Flow cytometry of EYFP+ cells (renal cell conversion); format: cell-based, mouse; conditions: TSA 15 nM, 6 h at 2nd stage
Experimental: To confirm renal conversion, Lin^− cells were isolated from bitransgenic creksp; R26R-EYFP mice that express EYFP specifically in the tubular epithelial cells of the kidney. […] However, after the 3rd stage, the induced cells expressed EYFP mRNA by RT-PCR analysis (FIG. 7B) and EYFP protein by immunostaining (FIG. 7C).
Treatment with TSA results in a 6-fold increase in EYFP^+ cells. Lin^− cells isolated from cre^ksp; R26R-EYFP mice were treated with vehicle or TSA (15 nM, 6 h) at the 2nd stage and EYFP^+ cells were quantified by flow cytometry analysis.

bone marrow stem cells = conditions: Tayaramma et al., 2006; cited from earlier work

Structure (SMILES)	monocyte migration in response to calcium (CaR)	cell death (Lin− cells [1])	IC50 of inhibition of HDAC activity (HDAC)	reversibility of inhibition of HDAC activity (HDAC; in cell cultures and in vivo)	histone H3 and H4 acetylation on promoters of renal genes [2]	proportion of expressed genes altered ([3]; 340 expressed genes in a lymphoid cell line, Van Lint et al., 1996) [%]	proportion of genes tested altered ([3]; multiple cell lines, literature)	Cdh 6 -Fold increase (Lin− cells [4]; *p<0.05, n=3)	Cdh 16 -Fold increase (Lin− cells [4]; *p<0.05, n=3)	Gdnf -Fold increase (Lin− cells [4]; *p<0.05, n=3)	Lim1 -Fold increase (Lin− cells [4]; *p<0.05, n=3)	Osr 1 -Fold increase (Lin− cells [4]; *p<0.05, n=3)	Pax2 -Fold increase (Lin− cells [4]; *p<0.05, n=3)	18s RNA -Fold increase (Lin− cells [4]; control gene, n=3) [Fold]	Six2 -Fold increase (Lin− cells [4]; n=3) [Fold]	increase in EYFP+ cells (cell conversion) vs vehicle [5] [fold]	EYFP+ cells after the 3rd stage ([5]; flow cytometry, vehicle group 6.3%) [%]	differentiation of insulin-producing cells (bone marrow stem cells)
COc1cccc([C@@H](C)NCCCc2ccccc2)c1 [NPS R-467]	increases	–	–	–	–	–	–	–	–	–	–	–	–	–	–	–	–	–
CC(/C=C/C(=O)NO)=C\[C@@H](C)C(=O)c1ccc(N(C)C)cc1 [TSA, trichostatin A]	–	no increase in cell death	nanomolar range	reversible	increased histone H3 and H4 acetylation	2	2-10%	16.5* Fold	4.39* Fold	5.39* Fold	8.29* Fold	14.95* Fold	3.28* Fold	−0.06	1.3	6	37.9	led to differentiation of insulin-producing cells
